Data from US11866704B2, “Nucleic acid molecules and uses thereof” (Macau University of Science and Technology, priority 2020, dated 2024).
[s4U] = 4-thiouridine base; m = 2'-O-methyl; r = 2'-OH (RNA)

Experiments:
[1] = system: HCT-8 cells; experiment: Clonogenic assay on HCT-8 cells; assay type: cell-based, human; details: 50 nM, vs control group
Procedure: (§1) HCT-8, fluorouracil-resistant HCT-8, fluorouracil-resistant LoVo cell lines were cultured in RPMI Medium 1640 medium containing 10% FBS and 1% penicillin/streptomycin. LoVo cell line was cultured in F-12K medium containing 10% FBS and 1% penicillin/streptomycin. All cell lines above were cultured at humidified atmosphere containing 5% CO2 at 37° C.
(§2) In the clonogenic assay, HCT-8 or LoVo cells were plated in 6-well microplate at a density of 1000 cells per well in 2 mL of culture medium and allowed to adhere for 24 h before treatment. Single concentration of RNA molecules obtained in Example 1 to 4 in a mixture containing a gene delivery carrier, i.e. Lipofectamine™ RNAiMAX Transfection Reagent (Thermo Fisher Scientific, U.S.A.) were then added to the cells. After treated for 48 h, discarded the drug solutions and replaced with 2 mL of fresh culture medium. After culture 14 days, discarded the culture medium and the cells were fixated with 4% paraformaldehyde fix solution for 20 min, followed by stained with crystal violet for 10 min and then washed by deionized water. The 6-well microplate was photographed and the number of colonies with more than 50 individual cells were counted using ImageJ software (U.S.A.). Each experiment was carried out for three times. Results were expressed as means±standard deviation.

[2] = system: LoVo colorectal adenocarcinoma cell line; experiment: MTT cytotoxicity assay on LoVo cells; assay type: cell-based
Procedure: as §1
(§3) In the cytotoxicity assay, exponentially growing cells of each cancer cell line were plated in 96-well microplate at a density of 5000 cells per well in 100 μL of culture medium and allowed to adhere for 24 h before treatment. Serial concentrations of RNA molecules obtained in Example 1 to 4 in a mixture containing a gene delivery carrier, i.e. Lipofectamine™ RNAiMAX Transfection Reagent (Thermo Fisher Scientific, U.S.A.) were then added to the cells. After treated for 48 h, MTT solution (50 μL per well, 1 mg/mL solution) was added to each well and incubated for 4 h at 37° C. Subsequently, 200 μL dimethyl sulfoxide (DMSO) were added and the optical densities of the resulting solutions were calorimetrically determined at 570 nm using a SpectraMax 190 microplate reader (Molecular Devices, Sunnyvale, CA, U.S.A). Dose-response curves were obtained, and the IC50 values were calculated by GraphPad Prism 5 (GraphPad, La Jolla, CA, USA). Each experiment was carried out for three times. IC50 results were expressed as means±standard deviation.

[3] = system: HCT-8 cells; experiment: Wound-healing assay on HCT-8 cells; assay type: cell-based, human; details: 50 nM, vs control group
Procedure: as §1
as §2, with “wound-healing” for “clonogenic”, “500,000” for “1000”, “[…]” for “Single concentration”, “[…] A 1 mL bacteria-free pipette tip was used to make a cross-scratch at the bottom of 6-well microplate. The cells in the scratch were washed away using phosphor buffer solution and the 6-well microplate was photographed under a microscope. Single concentration of RNA molecules obtained in Example 1 to 4 in a mixture containing a gene delivery carrier, i.e. Lipofectamine™ RNAiMAX Transfection Reagent (Thermo Fisher Scientific, U.S.A.) were then added to the cells. The cells were then photographed under microscope at 24 and 48 h. ImageJ software was applied to quantify the area of wound created. Each experiment was carried out for three times. Results were expressed as means±standard deviation.” for “deviation.”

[4] = system: HCT-8 human ileocecal colorectal adenocarcinoma cell line; experiment: MTT cytotoxicity assay on HCT-8 cells; assay type: cell-based; details: HCT-8
Procedure: as §1, §3

[5] = system: LoVo cells; experiment: Wound-healing assay on LoVo cells; assay type: cell-based; details: 25 nM, vs control group
Procedure: as §1
as §2, with “wound-healing” for “clonogenic”, “500,000” for “1000”, “[…]” for “Single concentration”, “[…] A 1 mL bacteria-free pipette tip was used to make a cross-scratch at the bottom of 6-well microplate. The cells in the scratch were washed away using phosphor buffer solution and the 6-well microplate was photographed under a microscope. Single concentration of RNA molecules obtained in Example 1 to 4 in a mixture containing a gene delivery carrier, i.e. Lipofectamine™ RNAiMAX Transfection Reagent (Thermo Fisher Scientific, U.S.A.) were then added to the cells. The cells were then photographed under microscope at 24 and 48 h. ImageJ software was applied to quantify the area of wound created. Each experiment was carried out for three times. Results were expressed as means±standard deviation.” for “deviation.”

[6] = system: HCT-8/5-FU (5-FU-resistant strain of HCT-8); experiment: MTT cytotoxicity assay on HCT-8/5-FU cells; assay type: cell-based, human
Procedure: as §1, §3

[7] = system: LoVo cells; experiment: Clonogenic assay on LoVo cells; assay type: cell-based; details: 25 nM, vs control group
Procedure: as §1, §2

[8] = system: LoVo/5-FU (5-FU-resistant strain of LoVo); experiment: MTT cytotoxicity assay on LoVo/5-FU cells; assay type: cell-based
Procedure: as §1, §3

Q: Which “colony number, inhibition of proliferation (FIG. 8A)” value [1] does the source give for “EC83-M3 mimic: modified EC83 dsRNA; antisense SEQ ID NO: 3 GCCGAAG[s^4U]GGCGAAAUC[Gm]GUAG, sense SEQ ID NO: 6 CUACCGAUUUCGCCACUUCGGC (antisense GCCGAAGUGGCGAAAUCGGUAG; antisense: sugars from the 5' end r17 m1 r4, [s4U] at 8, backbone not given here; sense: RNA, backbone not given here; tRNA-derived fragment mimic duplex)” here?
A: The value was “significantly inhibit the proliferation”.

Q: What about the “effect on growth and proliferation (FIGS. 7A, 7B)” value (shortened to “effect on growth and proliferation”) ([2]; 6.25-100 nM) of the same substance?
A: Its value is “dose-dependent effect on inhibiting the growth and proliferation”.

Q: And the IC50 ([2]; MTT, 48 h treatment)?
A: The IC50 was 24.1 nM.

Q: What about the “wound area, inhibition of migration (FIG. 9A)” value [3] of the same substance?
A: The value was “significantly inhibit the migration”.

Q: What about the “effect on growth and proliferation” value ([4]; 6.25-100 nM) of the same substance?
A: Its value is “dose-dependent effect on inhibiting the growth and proliferation”.

Q: What about the IC50 ([4]; MTT, 48 h treatment) of the same substance?
A: The IC50 was 74.5 nM.

Q: And the “wound area, inhibition of migration (FIG. 9B)” value [5]?
A: The value was “significantly inhibit the migration”.

Q: What about the “effect on growth and proliferation” value ([6]; 6.25-100 nM) of the same substance?
A: Its value is “dose-dependent effect on inhibiting the growth and proliferation”.

Q: What about the IC50 ([6]; MTT, 48 h treatment) of the same substance?
A: The IC50 was 72.2 nM.

Q: And the “colony number, inhibition of proliferation (FIG. 8B)” value [7]?
A: Its value is “significantly inhibit the proliferation”.

Q: What about the “effect on growth and proliferation” value ([8]; 6.25-100 nM) of the same substance?
A: Its value is “dose-dependent effect on inhibiting the growth and proliferation”.

Q: And the IC50 ([8]; MTT, 48 h treatment)?
A: Its IC50 is 23 nM.
